Assay results reported in patent publication US20230248833A1, “COMPOUND HAVING BTK KINASE DEGRADING ACTIVITY, AND PREPARATION METHOD AND PHARMACEUTICAL USE THEREFOR” (SICHUAN HAISCO PHARMACEUTICAL CO., LTD., priority 2020, published 2023).
pIC50: −log10 of the molar value.

Tested on: Mino cells
Assay: Inhibition of cell proliferation, Mino cells (Cell Viability Assay, 72 h)
Format: cell-based, human
Conditions: for pIC50: Homo sapiens, MINO, 72 h; for Mino Max inhi. %: inhibition rate at the highest concentration of the compound
Experimental: SU-DHL-4, Mino, and SU-DHL-6 cells, in the culture medium of RPMI1640+10% FBS, were cultured in an incubator at 37° C. under 5% CO2. Cells were plated in a 96-well plate. Specifically, SU-DHL-4 cells were at 20000/well, Mino and SU-DHL-6 cells were at 5000/well, with 90 μL/well. 10 μL of the compounds at different concentrations were added to each well. There were 3 replicate wells for each concentration, and the last column, added with DMSO, was used as a vehicle control group. The cultures were continued for 72 hours at 37° C. under 5% CO2. After 72 hours, 100 μL of detection reagent (Cell Viability Assay, Promega, G7573) was added to each well, and the cultures were uniformly mixed for 2 minutes, and incubated at room temperature for 10 minutes. The […] signal value was measured with a microplate reader (PHERAstar FSX). The IC50 value of the compound on cell proliferation inhibition was calculated using origin9.2 software, and the inhibition rate at the highest concentration of the compound (Max inhi.%) was calculated according to formula (1).
Max inhi.%=(1−T72administration/T72vehicle)×100 Formula (1).

| SMILES | pIC50 | Mino Max inhi. % [%] |
| --- | --- | --- |
| Nc1ncnc2c1c(-c1ccc(Oc3ccccc3)cc1)nn2C1CC2(CCN(C3CN(C4CN(c5ccc6c(c5)C(=O)N(C5CCC(=O)NC5=O)C6=O)C4)C3)CC2)C1 (stereo not shown) [Compound 65, 5-(3-(2-(4-amino-3-(4-phenoxyphenyl)-1H-pyrazolo[3,4-d]pyrimidin-1-yl)-7-azaspiro[3.5]nonan-7-yl)-[1,3′-biazetidin]-1′-yl)-2-(2,6-dioxopiperidin-3-yl) isoindoline-1,3-dione] | 7.85 | – |
| Nc1ncnc2c1c(-c1ccc(Oc3ccccc3)cc1)nn2C1CC2(CCN(C3CC4(CCN(c5ccc6c(c5)C(=O)N(C5CCC(=O)NC5=O)C6=O)CC4)C3)CC2)C1 (stereo not shown) [Compound 66, 5-(2′-(4-amino-3-(4-phenoxyphenyl)-1H-pyrazolo[3,4-d]pyrimidin-1-yl)-7,7′-diaza[2,7′-bispiro[3.5]nonan]-7-yl)-2-(2,6-dioxopiperidin-3-yl)isoindoline-1,3-dione] | 7.57 | – |
| Nc1ncnc2c1c(-c1ccc(Oc3ccccc3)cc1)nn2C1CCN(C2(C(F)(F)F)CCN(C3CN(c4ccc5c(c4)C(=O)N(C4CCC(=O)NC4=O)C5=O)C3)CC2)CC1 (stereo not shown) [Compound 70, 5-(3-(4-(4-amino-3-(4-phenoxyphenyl)-1H-pyrazolo[3,4-d]pyrimidin-1-yl)-4′-(trifluoromethyl)-[1,4′-bipiperidin]-1′-yl)azetidin-1-yl)-2-(2,6-dioxopiperidin-3-yl)isoindoline-1,3-dione] | 7.00 | – |
| Nc1ncnc2c1c(-c1ccc(Oc3ccccc3)cc1)nn2C1CCN(C2CN(C3CN(C(=O)CC45CC6CC(CC(C6)C4)C5)C3)C2)CC1 [Compound 72, 2-(1-adamantyl)-1-[3-[3-[4-[4-amino-3-(4-phenoxyphenyl)pyrazolo[3,4-d]pyrimidin-1-yl]-1-piperidyl]azetidin-1-yl]azetidin-1-yl]ethanone] | 6.00 to 8.00 | 88.5 |
| Nc1ncnc2c1c(-c1ccc(Oc3ccccc3)cc1)nn2C1CCN(C2CCN(C3CN(C(=O)CC45CC6CC(CC(C6)C4)C5)C3)CC2)CC1 [Compound 73, 2-(1-adamantyl)-1-(3-(4-(4-amino-3-(4-phenoxyphenyl)pyrazolo[3,4-d]pyrimidin-1-yl)-[1,4′-bipiperidin]-1′-yl)azetidin-1-yl)ethan-1-one] | – | 99.8 |
| Nc1ncnc2c1c(-c1ccc(Oc3ccccc3)cc1)nn2C1CCN(C2CN(C(=O)CC34CC5CC(CC(C5)C3)C4)C2)CC1 [Compound 74, 2-((3r,5r,7r)-adamantan-1-yl)-1-(3-(4-(4-amino-3-(4-phenoxyphenyl)-1H-pyrazolo[3,4-d]pyrimidin-1-yl)piperidin-1-yl)azetidin-1-yl)ethanone] | – | 88.3 |
| Nc1ncnc2c1c(-c1ccc(Oc3ccccc3)cc1)nn2C1CCC2(CC1)CN(C1CN(c3ccc4c(c3)C(=O)N(C3CCC(=O)NC3=O)C4=O)C1)C2 (stereo not shown) [Compound 75, 5-(3-(7-(4-amino-3-(4-phenoxyphenyl)-1H-pyrazolo[3,4-d]pyrimidin-1-yl)-2-azaspiro[3.5]nonan-2-yl)azetidin-1-yl)-2-(2,6-dioxopiperidin-3-yl)isoindoline-1,3-dione] | 7.43 | – |
| Nc1ncnc2c1c(-c1ccc(Oc3ccccc3)cc1)nn2C1CCN(C2CN(C3CN(c4ccc5c(n4)CN(C4CCC(=O)NC4=O)C5=O)C3)C2)CC1 (stereo not shown) [Compound 76, 3-(2-(3-(4-(4-amino-3-(4-phenoxyphenyl)-1H-pyrazolo[3,4-d]pyrimidin-1-yl)piperidin-1-yl)-[1,3′-biazetidin]-1′-yl)-5-oxo-5,7-dihydro-6H-pyrrolo[3,4-b]pyridin-6-yl)piperidine-2,6-dione] | 6.85 | – |
| NC(=O)c1c(-c2ccc(Oc3ccccc3)cc2)nn2c1NCC[C@H]2C1CCN(C2CN(CC3CN(c4ccc5c(c4)C(=O)N(C4CCC(=O)NC4=O)C5=O)C3)C2)CC1 (stereo partly drawn) [Compound 80, (7S)-7-(1-(1-((1-(2-(2,6-dioxopiperidin-3-yl)-1,3-dioxoisoindolin-5-yl)azetidin-3-yl)methyl)azetidin-3-yl)piperidin-4-yl)-2-(4-phenoxyphenyl)-4,5,6,7-tetrahydropyrazolo[1,5-a]pyrimidine-3-carboxamide] | – | 99.1 |
